Data as given in article PMC8151276, “An Integrated Approach toward NanoBRET Tracers for Analysis of GPCR Ligand Engagement” (Molecules, 2021).

Legend:
CXCR2 = molecular target: T1, CXCR2 (Homo sapiens, UniProt P25025); assay: NanoBRET screen HiBiT-CXCR2 in HEK293; format: binding
T1 construct: purchased Promega (in-house HiBiT-GPCR construct library, NanoBRET)
T1 sequence (P25025 1-360): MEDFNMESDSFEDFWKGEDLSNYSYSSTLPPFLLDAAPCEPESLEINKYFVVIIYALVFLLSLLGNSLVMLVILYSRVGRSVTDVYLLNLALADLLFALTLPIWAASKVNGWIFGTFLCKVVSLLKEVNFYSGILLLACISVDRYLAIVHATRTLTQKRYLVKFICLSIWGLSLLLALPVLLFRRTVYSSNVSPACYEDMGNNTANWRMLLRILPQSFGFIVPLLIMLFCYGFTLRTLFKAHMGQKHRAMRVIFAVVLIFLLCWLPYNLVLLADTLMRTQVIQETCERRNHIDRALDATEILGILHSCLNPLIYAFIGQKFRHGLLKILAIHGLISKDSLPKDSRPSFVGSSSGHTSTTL
Experimental: (§1) Each tracer candidate was screened across the entire library of HiBiT-GPCR constructs using NanoBRET as the detection modality. As depicted in Figure 4A, the specificity of interactions was evaluated through decrease in BRET due to competitive displacement of a bound tracer by excess parental compound. Each tracer was analyzed for binding to each HiBiT-GPCR fusion in the absence and in the presence of competing parental compound. Briefly, HEK293 cells were transfected with HiBiT-GPCR constructs diluted into promoterless DNA to reduce expression and maximize translocation to the cell surface. Each tracer candidate was then screened at concentrations of 1 μM and 0.1 μM across cells expressing these fusions. Cells were treated for 1.5 h with tracer either alone or in the presence of 20 μM competing parental compound (i.e., control). BRET was measured upon addition of purified LgBiT and subsequent complementation with HiBiT genetically fused to a GPCR. The specificity of interactions was assessed through a decrease in BRET signal due to competitive displacement of the bound tracer. To further gauge the robustness of these interactions, the fold response over the control (i.e., BRETtracer/BRETcontrol) was calculated. We chose a 1.5-fold response, which translates to ≥7-fold signal over noise as the minimal threshold required to score an interaction as positive. […]. Below we highlight the screening results obtained for our exemplary fluorescent tracers based on Clozapine, Amitriptyline and AZD1283.
(§2) HiBiT-GPCR DNA constructs were diluted in 10 mM Tris pH 8 to a final concentration of 0.01 μg/μL, arrayed in 96-well plates and stored at −20 °C. For transfection, HEK293 cells were suspended in Opti-MEM (without phenol red) supplemented with 2% fetal bovine serum (Seradigm) and 100 units/mL penicillin–streptomycin (Gibco) at a final concentration of 220,000 cells/mL and dispensed into white 96-well plates at 90 μL/well. Subsequent transfections and screens were carried using an Agilent Bravo Automated Liquid Handling Platform. First, the 96-well HiBiT DNA arrays were diluted 25-fold in Opti-MEM (without serum or phenol red) to a final concentration of 0.0004 μg/μL and 20 μL of the diluted DNAs were transferred into new 96-well plates. Next, promoterless carrier DNA (1 μg/μL) was diluted 25-fold (0.04 μg/μL) and then dispensed into the diluted arrays at 20 μL/well. Following brief mixing, Viafect transfection reagent (Promega) diluted 16-fold into Opti-MEM was dispensed into the plates at 40 μL/well. After mixing by pipetting, plates were incubated for 10 min on the pipetting station deck. The DNA-transfection reagent complexes were then added to plates containing cells. To facilitate the screen, 10 μL of DNA-transfection reagent complexes were added in duplicates to the top 4 and bottom 4 rows, resulting in two identical 48-well arrays per plate. Plates with transfected cells were incubated for 18–20 h at 37 °C/5% CO2. A screen of each tracer across the entire library using two different concentrations requires duplicate plates of transfected cells. Depending on the number of tracers being screened, transfections can be scaled up using the same ratios. The next day, for each tracer, four 20× screening solutions in tracer dilution buffer (Promega) were prepared: two duplicates at final concentration of 20 μM and two duplicates at a final concentration of 2 μM. A competing unmodified compound was added to one of each duplicate at a final concentration of 400 μM. The four resulting solutions were diluted 4-fold in Opti-MEM without serum or phenol red to generate 5× solutions (5 µM and 0.5 µM tracer +/− 100 μM competing compound). To screen the library, a BioTek MultiFlo FX liquid dispenser was used to dispense 22.5 µL of tracer solution to the top 4 rows and 22.5 µL tracer + competing compound solution to the 4 bottom rows. Plates were briefly mixed on an orbital shaker and incubated for 1.5 h at room temperature. […]

F2RL3 = molecular target: T2, F2RL3 (Homo sapiens, UniProt Q96RI0); assay: NanoBRET screen HiBiT-F2RL3 in HEK293; format: binding
T2 construct: purchased Promega (in-house HiBiT-GPCR construct library, NanoBRET)
T2 sequence (Q96RI0 18-385): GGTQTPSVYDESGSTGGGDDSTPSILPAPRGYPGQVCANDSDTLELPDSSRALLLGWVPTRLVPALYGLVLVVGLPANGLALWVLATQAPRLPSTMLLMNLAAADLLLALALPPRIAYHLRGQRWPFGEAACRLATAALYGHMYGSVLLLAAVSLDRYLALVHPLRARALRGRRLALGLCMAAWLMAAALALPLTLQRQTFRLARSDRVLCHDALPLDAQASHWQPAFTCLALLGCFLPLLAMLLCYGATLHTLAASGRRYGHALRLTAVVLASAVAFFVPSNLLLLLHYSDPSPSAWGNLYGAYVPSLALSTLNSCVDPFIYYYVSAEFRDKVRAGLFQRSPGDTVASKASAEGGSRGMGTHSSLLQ
Experimental: as §1, §2

[1] = tracer at 0.1μM, listed as amitriptyline-b-2-NB590
[2] = tracer at 1μM, listed as amitriptyline-b-2-NB590

| Compound | NanoBRET Fold Response (CXCR2; CXCR2, tracer 0.1μM) | NanoBRET Fold Response (CXCR2; CXCR2, tracer 1μM) | NanoBRET Fold Response (F2RL3; F2RL3, tracer 0.1μM) | NanoBRET Fold Response (F2RL3; F2RL3, tracer 1μM) | also measured |
| --- | --- | --- | --- | --- | --- |
| O=C(CCc1ccc2n1[B-](F)(F)[N+]1=C(c3ccc[nH]3)C=CC1=C2)NCc1ccc(C(=O)NCCOCCC(=O)N[C@@H]2CC[C@@]3(O)[C@H]4Cc5ccc(O)c6c5[C@@]3(CCN4CC3CC3)[C@H]2O6)cc1 [Naltrexone-3-NB590] | 0.81 | 0.78 | 0.92 | 1.03 | – |
| CCCn1c(=O)c2[nH]c(-c3ccc(OCC(=O)NCCNC(=O)CCOCCNC(=O)c4ccc(CNC(=O)CCc5ccc6n5[B-](F)(F)[N+]5=C(c7ccc[nH]7)C=CC5=C6)cc4)cc3)nc2n(CCC)c1=O [XAC-3-NB590] | 1.22 | 0.70 | 0.99 | 1.05 | – |
| CC(C)N(CC[C@H](c1ccccc1)c1cc(CCNC(=O)c2ccc(CNC(=O)CCc3ccc4n3[B-](F)(F)[N+]3=C(c5ccc[nH]5)C=CC3=C4)cc2)ccc1O)C(C)C [Tolterodine-BZ-NB590] | 0.99 | 1.06 | 1.03 | 1.06 | – |
| COc1ccc2[nH]c(-c3ccc(CNC(=O)CCOCCOCCOCCOCCNC(=O)CCc4ccc5n4[B-](F)(F)[N+]4=C(c6ccc[nH]6)C=CC4=C5)cc3)c(CCNC(C)=O)c2n1 [AzomelatoninICO9-2-NB590] | – | – | – | – | NanoBRET Fold Response (CXCR2; 0.1μM tracer): 1.38; NanoBRET Fold Response (CXCR2; 1μM tracer): 1.00; NanoBRET Fold Response (F2RL3; 0.1μM tracer): 1.05; NanoBRET Fold Response (F2RL3; 1μM tracer): 1.04 |
| CN1CCN(C2=Nc3cc(Cl)ccc3N(CC(=O)NCCOCCOCCOCCOCCNC(=O)CCc3ccc4n3[B-](F)(F)[N+]3=C(c5ccc[nH]5)C=CC3=C4)c3ccccc32)CC1 [Clozapine-c-2-NB590] | – | – | – | – | NanoBRET Fold Response (CXCR2; CXCR2, 0.1μM tracer): 1.03; NanoBRET Fold Response (CXCR2; CXCR2, 1μM tracer): 0.92; NanoBRET Fold Response (F2RL3; F2RL3, 0.1μM tracer): 1.02; NanoBRET Fold Response (F2RL3; F2RL3, 1μM tracer): 0.99 |
| COc1ccccc1N1CCN(CCCCN2C(=O)c3ccc(CNC(=O)CCOCCNC(=O)c4ccc(CNC(=O)CCc5ccc6n5[B-](F)(F)[N+]5=C(c7ccc[nH]7)C=CC5=C6)cc4)cc3C2=O)CC1 [NAN-190-3-NB590] | 1.10 | 0.86 | 1.15 | 0.99 | – |
| Cc1nc2n(c(=O)c1CCN1CCC(c3noc4cc(F)ccc34)CC1)CCCC2OC(=O)NCCOCCOCCOCCOCCNC(=O)CCc1ccc2n1[B-](F)(F)[N+]1=C(c3ccc[nH]3)C=CC1=C2 (stereo not drawn) [Risperidone-2-NB590] | 1.09 | 0.99 | 0.98 | 0.97 | – |
| O=C(CCOCCOCCOCCOCCNC(=O)CCc1ccc2n1[B-](F)(F)[N+]1=C(c3ccc[nH]3)C=CC1=C2)NCCCN1CCN(C2=Nc3ccccc3Oc3ccc(Cl)cc32)CC1 [Loxapine-a-2-NB590] | 1.06 | 0.98 | 1.00 | 1.02 | – |
| COc1ccccc1N1CCN(CCCCN2C(=O)c3ccc(CNC(=O)CCOCCOCCOCCOCCNC(=O)CCc4ccc5n4[B-](F)(F)[N+]4=C(c6ccc[nH]6)C=CC4=C5)cc3C2=O)CC1 [NAN-190-2-NB590] | 1.08 | 0.92 | 0.99 | 1.01 | – |
| CC(C)N(CC[C@H](c1ccccc1)c1cc(CCNC(=O)CCOCCOCCOCCOCCNC(=O)CCc2ccc3n2[B-](F)(F)[N+]2=C(c4ccc[nH]4)C=CC2=C3)ccc1O)C(C)C [Tolterodine-2-NB590] | 0.96 | 0.98 | 1.08 | 0.97 | – |
| N#CN=C(NCCCOc1cccc(CN2CCCCC2)c1)NCCNC(=O)CCOCCOCCOCCOCCNC(=O)CCc1ccc2n1[B-](F)(F)[N+]1=C(c3ccc[nH]3)C=CC1=C2 [Aminopotentidine-2-NB590] | 0.90 | 0.95 | 0.99 | 1.06 | – |
| CCOC(=O)c1cc(C#N)c(N2CCC(C(=O)NS(=O)(=O)Cc3ccccc3/C=C/C(=O)NCCNC(=O)CCc3ccc4n3[B-](F)(F)[N+]3=C(c5ccc[nH]5)C=CC3=C4)CC2)nc1C [AZD1283-1-NB590] | – | – | – | – | NanoBRET Fold Response (CXCR2; CXCR2, 0.1μM): 0.99; NanoBRET Fold Response (CXCR2; CXCR2, 1μM): 1.03; NanoBRET Fold Response (F2RL3; F2RL3, 0.1μM): 1.04; NanoBRET Fold Response (F2RL3; F2RL3, 1μM): 1.09 |
| CN(C)CCC=C1c2ccccc2CCc2ccc(C(=O)NCCNC(=O)CCOCCOCCOCCOCCNC(=O)CCc3ccc4n3[B-](F)(F)[N+]3=C(c5ccc[nH]5)C=CC3=C4)cc21 [Amitriptyline-b-2-NB590] | – | – | – | – | NanoBRET Fold Response (CXCR2; [1]): 0.97; NanoBRET Fold Response (CXCR2; [2]): 0.83; NanoBRET Fold Response (F2RL3; [1]): 0.94; NanoBRET Fold Response (F2RL3; [2]): 1.04 |
| CN(C)CCC=C1c2ccccc2CCc2ccc(C(=O)NCCNC(=O)CCOCCOCCOCCOCCNC(=O)CCc3ccc4n3[B-](F)(F)[N+]3=C(c5ccc[nH]5)C=CC3=C4)cc21 [Amitriptyline-a-2-NB590] | – | – | – | – | NanoBRET Fold Response (CXCR2; tracer at 0.1μM): 0.99; NanoBRET Fold Response (CXCR2; tracer at 1μM): 1.00; NanoBRET Fold Response (F2RL3; tracer at 0.1μM): 1.00; NanoBRET Fold Response (F2RL3; tracer at 1μM): 1.03 |
| O=C(CCc1ccc2n1[B-](F)(F)[N+]1=C(c3ccc[nH]3)C=CC1=C2)NCCOCCOCCNC(=O)OCCOCCN1CCN(C2=Nc3ccccc3Sc3ccccc32)CC1 [Quetiapine-a-2-NB590] | 1.03 | 0.97 | 1.09 | 0.84 | – |
| Cc1cc2c(s1)Nc1ccccc1N=C2N1CCN(CCCNC(=O)CCOCCOCCOCCOCCNC(=O)CCc2ccc3n2[B-](F)(F)[N+]2=C(c4ccc[nH]4)C=CC2=C3)CC1 [Olanzapine-a-2-NB590] | 0.97 | 1.08 | 1.04 | 0.98 | – |
| CN1CCN(C2=Nc3cc(Cl)ccc3Nc3ccc(CNC(=O)CCOCCOCCOCCOCCNC(=O)CCc4ccc5n4[B-](F)(F)[N+]4=C(c6ccc[nH]6)C=CC4=C5)cc32)CC1 [Clozapine-b-2-NB590] | – | – | – | – | NanoBRET Fold Response (CXCR2; CXCR2, 0.1μM tracer): 0.98; NanoBRET Fold Response (CXCR2; CXCR2, 1μM tracer): 1.06; NanoBRET Fold Response (F2RL3; F2RL3, 0.1μM tracer): 0.99; NanoBRET Fold Response (F2RL3; F2RL3, 1μM tracer): 1.05 |
| CN(CCC=C1c2ccccc2CCc2ccccc21)C(=O)CCOCCOCCOCCOCCNC(=O)CCc1ccc2n1[B-](F)(F)[N+]1=C(c3ccc[nH]3)C=CC1=C2 [Amitriptyline-e-2-NB590] | – | – | – | – | NanoBRET Fold Response (CXCR2; tracer at 1μM): 1.07 |
